Common to all, as to format: biochemical
The target in one test is PI3K β (Homo sapiens (Human), UniProt P42338). In words: PI 3-Kinase (human) HTRF assay, p110β/p85α. (Time-resolved FRET reads energy transfer from a long-lived donor to a nearby acceptor.)
Another test concerns the target PI3K δ (Homo sapiens (Human), UniProt O00329). Nature of the test: PI 3-Kinase (human) HTRF assay, p110δ/p85α.
The next test deals with PI3K γ (Homo sapiens (Human), UniProt P48736). Nature of the test: PI 3-Kinase (human) HTRF assay, p110γ. The settings on record: read-out: PI3K γ IC50.
Chain of PI3K γ (P48736 whole entry): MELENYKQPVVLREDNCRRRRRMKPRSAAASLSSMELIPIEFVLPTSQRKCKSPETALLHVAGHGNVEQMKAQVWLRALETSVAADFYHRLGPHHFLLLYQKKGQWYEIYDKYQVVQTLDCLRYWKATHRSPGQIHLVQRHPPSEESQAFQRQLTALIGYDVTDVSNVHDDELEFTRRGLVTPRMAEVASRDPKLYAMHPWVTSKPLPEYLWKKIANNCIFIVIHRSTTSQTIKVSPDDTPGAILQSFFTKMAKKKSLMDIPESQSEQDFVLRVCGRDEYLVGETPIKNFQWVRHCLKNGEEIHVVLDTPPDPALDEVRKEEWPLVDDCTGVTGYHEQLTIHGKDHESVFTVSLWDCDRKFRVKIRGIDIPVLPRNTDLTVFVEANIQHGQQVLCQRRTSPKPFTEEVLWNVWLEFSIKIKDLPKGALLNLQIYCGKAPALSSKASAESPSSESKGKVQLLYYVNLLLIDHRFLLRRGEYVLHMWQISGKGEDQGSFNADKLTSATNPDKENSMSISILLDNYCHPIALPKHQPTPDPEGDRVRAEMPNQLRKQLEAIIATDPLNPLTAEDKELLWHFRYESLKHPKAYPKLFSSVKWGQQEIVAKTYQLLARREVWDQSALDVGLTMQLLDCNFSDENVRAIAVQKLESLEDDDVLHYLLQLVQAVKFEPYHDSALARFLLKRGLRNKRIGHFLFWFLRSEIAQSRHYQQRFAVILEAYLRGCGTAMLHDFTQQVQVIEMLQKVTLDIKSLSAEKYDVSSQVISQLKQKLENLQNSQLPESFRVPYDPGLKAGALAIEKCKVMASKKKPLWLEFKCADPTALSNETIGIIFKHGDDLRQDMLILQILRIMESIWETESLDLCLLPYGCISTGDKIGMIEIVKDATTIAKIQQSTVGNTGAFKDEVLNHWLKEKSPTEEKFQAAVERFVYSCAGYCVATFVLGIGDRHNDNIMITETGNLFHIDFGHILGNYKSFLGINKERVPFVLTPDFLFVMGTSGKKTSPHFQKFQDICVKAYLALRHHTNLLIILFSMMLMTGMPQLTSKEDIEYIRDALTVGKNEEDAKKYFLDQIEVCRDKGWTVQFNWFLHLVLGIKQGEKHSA
Another test concerns the target PI3K α (Homo sapiens (Human), UniProt P42336). In words: PI 3-Kinase (human) HTRF assay, p110α/p85α.

Chain of PI3K α (P42336 whole entry): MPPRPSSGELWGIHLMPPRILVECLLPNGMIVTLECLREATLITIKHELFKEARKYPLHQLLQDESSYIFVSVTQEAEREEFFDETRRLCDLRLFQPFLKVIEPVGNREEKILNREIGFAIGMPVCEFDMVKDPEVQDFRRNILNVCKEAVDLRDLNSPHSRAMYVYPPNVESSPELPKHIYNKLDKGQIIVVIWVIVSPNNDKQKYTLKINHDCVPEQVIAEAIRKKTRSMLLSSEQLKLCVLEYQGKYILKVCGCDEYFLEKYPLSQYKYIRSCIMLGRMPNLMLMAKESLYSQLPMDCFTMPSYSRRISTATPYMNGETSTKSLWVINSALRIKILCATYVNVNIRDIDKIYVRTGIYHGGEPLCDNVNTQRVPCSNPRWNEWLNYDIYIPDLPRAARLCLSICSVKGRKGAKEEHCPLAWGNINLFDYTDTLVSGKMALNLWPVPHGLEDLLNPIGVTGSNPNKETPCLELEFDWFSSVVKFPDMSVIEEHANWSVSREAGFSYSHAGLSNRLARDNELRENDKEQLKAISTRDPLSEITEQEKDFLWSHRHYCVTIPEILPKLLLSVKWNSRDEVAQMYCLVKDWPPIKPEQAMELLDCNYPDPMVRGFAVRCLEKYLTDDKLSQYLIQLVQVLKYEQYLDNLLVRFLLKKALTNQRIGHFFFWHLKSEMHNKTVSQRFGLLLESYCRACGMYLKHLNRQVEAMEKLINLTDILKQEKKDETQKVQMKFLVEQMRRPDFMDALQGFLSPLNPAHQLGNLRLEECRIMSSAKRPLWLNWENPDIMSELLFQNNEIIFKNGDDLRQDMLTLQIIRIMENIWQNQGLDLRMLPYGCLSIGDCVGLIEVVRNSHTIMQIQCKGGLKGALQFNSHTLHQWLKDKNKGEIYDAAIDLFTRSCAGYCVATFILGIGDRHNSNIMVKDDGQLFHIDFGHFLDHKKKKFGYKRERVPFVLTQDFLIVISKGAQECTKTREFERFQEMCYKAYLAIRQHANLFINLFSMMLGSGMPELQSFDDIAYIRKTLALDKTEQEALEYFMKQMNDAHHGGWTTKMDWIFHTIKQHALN
Chain of PI3K α (P27986 whole entry partner): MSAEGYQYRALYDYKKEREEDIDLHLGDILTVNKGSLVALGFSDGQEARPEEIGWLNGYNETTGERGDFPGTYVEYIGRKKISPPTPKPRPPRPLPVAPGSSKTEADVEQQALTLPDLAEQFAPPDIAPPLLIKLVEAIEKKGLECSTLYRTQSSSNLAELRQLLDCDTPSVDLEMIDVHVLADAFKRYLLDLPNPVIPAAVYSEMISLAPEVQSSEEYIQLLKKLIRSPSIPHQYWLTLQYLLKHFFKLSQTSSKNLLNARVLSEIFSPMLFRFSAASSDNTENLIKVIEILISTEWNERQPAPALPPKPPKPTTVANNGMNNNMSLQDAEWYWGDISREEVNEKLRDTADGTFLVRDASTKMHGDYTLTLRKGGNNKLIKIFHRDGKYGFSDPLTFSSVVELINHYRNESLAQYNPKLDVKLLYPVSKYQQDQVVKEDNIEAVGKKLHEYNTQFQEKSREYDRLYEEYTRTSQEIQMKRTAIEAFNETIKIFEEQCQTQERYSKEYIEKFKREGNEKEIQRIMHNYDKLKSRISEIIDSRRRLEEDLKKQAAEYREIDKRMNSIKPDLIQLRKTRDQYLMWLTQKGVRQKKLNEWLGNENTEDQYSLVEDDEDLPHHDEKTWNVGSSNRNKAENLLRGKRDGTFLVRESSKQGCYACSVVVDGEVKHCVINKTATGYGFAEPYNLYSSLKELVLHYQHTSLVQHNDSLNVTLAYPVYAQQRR
Chain of PI3K δ (O00329 whole entry): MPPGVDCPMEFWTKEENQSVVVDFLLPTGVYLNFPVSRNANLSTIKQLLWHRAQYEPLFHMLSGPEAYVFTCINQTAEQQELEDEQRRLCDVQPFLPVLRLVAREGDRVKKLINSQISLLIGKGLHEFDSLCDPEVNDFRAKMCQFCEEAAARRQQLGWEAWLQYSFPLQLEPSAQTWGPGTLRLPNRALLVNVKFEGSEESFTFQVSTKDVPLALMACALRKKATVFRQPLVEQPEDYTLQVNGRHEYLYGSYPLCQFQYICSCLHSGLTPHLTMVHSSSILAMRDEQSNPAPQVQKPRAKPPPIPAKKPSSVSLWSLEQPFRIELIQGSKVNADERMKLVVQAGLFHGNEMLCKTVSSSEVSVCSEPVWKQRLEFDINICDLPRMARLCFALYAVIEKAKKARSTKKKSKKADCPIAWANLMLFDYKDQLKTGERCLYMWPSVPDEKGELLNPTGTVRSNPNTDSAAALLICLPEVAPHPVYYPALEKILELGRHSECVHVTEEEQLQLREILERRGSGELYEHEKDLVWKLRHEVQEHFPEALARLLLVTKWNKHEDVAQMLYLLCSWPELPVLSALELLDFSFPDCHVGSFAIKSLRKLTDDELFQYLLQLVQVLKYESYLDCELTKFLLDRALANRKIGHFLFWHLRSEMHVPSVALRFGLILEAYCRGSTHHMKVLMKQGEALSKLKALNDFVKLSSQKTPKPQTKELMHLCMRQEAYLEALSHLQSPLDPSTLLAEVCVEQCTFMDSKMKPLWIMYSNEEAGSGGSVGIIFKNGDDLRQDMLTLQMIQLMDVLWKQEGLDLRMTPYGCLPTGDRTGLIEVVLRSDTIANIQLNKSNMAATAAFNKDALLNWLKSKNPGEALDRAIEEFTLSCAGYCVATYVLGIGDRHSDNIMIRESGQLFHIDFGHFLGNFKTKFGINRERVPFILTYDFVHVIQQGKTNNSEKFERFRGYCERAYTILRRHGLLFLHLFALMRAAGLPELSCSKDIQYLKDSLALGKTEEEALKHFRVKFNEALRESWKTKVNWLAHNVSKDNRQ
Chain of PI3K δ (P27986 whole entry partner): as the sequence (P27986 whole entry partner) above
Chain of PI3K β (P42338 whole entry): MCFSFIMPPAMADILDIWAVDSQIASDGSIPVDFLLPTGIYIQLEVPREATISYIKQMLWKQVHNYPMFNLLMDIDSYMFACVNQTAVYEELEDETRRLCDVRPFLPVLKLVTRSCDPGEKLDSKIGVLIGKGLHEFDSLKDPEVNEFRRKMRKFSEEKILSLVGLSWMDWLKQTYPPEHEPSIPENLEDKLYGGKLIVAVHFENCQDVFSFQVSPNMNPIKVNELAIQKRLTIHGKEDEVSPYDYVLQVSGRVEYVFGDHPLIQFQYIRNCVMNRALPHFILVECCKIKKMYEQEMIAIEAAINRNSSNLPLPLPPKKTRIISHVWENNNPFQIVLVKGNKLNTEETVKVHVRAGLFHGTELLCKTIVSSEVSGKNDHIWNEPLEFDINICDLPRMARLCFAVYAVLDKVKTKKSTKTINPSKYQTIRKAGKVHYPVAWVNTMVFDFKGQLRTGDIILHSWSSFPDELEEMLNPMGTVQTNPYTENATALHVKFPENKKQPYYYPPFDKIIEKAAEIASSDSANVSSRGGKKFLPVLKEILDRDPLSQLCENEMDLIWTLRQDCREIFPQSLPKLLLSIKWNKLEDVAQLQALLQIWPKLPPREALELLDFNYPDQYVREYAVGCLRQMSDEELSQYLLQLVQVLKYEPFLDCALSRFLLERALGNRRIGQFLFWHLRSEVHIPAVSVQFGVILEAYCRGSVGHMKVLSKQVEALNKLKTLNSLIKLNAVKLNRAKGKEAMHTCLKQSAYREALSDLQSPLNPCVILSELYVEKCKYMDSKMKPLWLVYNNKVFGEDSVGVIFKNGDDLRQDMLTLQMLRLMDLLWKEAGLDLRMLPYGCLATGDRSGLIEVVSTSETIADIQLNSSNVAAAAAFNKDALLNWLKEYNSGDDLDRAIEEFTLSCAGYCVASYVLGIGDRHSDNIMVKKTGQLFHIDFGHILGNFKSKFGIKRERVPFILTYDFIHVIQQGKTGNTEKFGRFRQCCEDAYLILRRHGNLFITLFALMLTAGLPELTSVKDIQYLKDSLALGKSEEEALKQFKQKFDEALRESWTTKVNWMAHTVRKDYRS
Chain of PI3K β (P27986 whole entry partner): as the sequence (P27986 whole entry partner) above
Protocol for PI3K γ: An exemplary system is PI 3-Kinase (human) HTRF™ Assay from Upstate. […] Briefly, the assay is a time resolved FRET assay that indirectly measures PIP3 product formed by the activity of a PI3-K. The kinase reaction is performed in a microtitre plate (e.g., a 384 well microtitre plate). The total reaction volume is approximately 20 ul per well. In the first step, each well receives 2 ul of test compound in 20% dimethylsulphoxide resulting in a 2% DMSO final concentration. Next, approximately 14.5 ul of a kinase/PIP2 mixture (diluted in 1× reaction buffer) is added per well for a final concentration of 0.25-0.3 ug/ml kinase and 10 μM PIP2. The plate is sealed and incubated for 15 minutes at room temperature. To start the reaction, 3.5 ul of ATP (diluted in 1× reaction buffer) is added per well for a final concentration of 10 μM ATP. The plate is sealed and incubated for 1 hour at room temperature. The reaction is stopped by adding 5 ul of Stop Solution per well and then 5 ul of Detection Mix is added per well. The plate is sealed, incubated for 1 hour at room temperature, and then read on an appropriate plate reader. Data is analyzed and IC50s are generated using GraphPad Prism 5. For PI3K α, β, δ, and γ, the nM concentration of inhibitor to reach IC50 is provided.

For the compound `CN1CCN(c2cnc3ccc(-c4ccc5nc(N)oc5c4)cc3n2)CC1`, the half-maximal inhibitory concentration (IC50) is less than 0.1 µM against PI3K β, more than 10 µM at PI3K δ, less than 10 µM at PI3K γ and less than 1 µM at PI3K α.
Take `Nc1nc2cc(-c3cc4nccc(-c5ccncc5)c4s3)ccc2o1` [Compound 14]: the IC50 on PI3K β was more than 10 µM; against PI3K δ, more than 10 µM; on PI3K γ, less than 10 µM; on PI3K α, less than 10 µM.
`CN1CCN(c2cnc3ccc(-c4ccc5nc(N)sc5c4)cc3n2)CC1`: the half-inhibitory concentration (IC50) is less than 0.1 µM at PI3K β, more than 10 µM on PI3K δ, less than 10 µM at PI3K γ and less than 0.1 µM at PI3K α.
Take `Nc1nc2cc(-c3ccc4nc(N5CCOCC5)cnc4n3)ccc2o1`: the 50% inhibitory concentration (IC50) at PI3K β, on PI3K δ, on PI3K γ and against PI3K α was more than 10 µM each time.
Turning to `CNC(=O)CN1CCN(c2cnc3ccc(-c4ccc5oc(N)nc5c4)cc3n2)CC1`, the IC50 was less than 1 µM against PI3K β, less than 10 µM on PI3K δ, more than 10 µM at PI3K γ and less than 0.1 µM against PI3K α.
As to `CN1CCN(C(=O)c2cnc3ccc(-c4ccc5nc(N)oc5c4)cn23)CC1`, the IC50 at PI3K β is less than 10 µM; on PI3K δ, more than 10 µM; on PI3K γ, more than 10 µM; at PI3K α it was less than 1 µM.
Consider `C[C@@H]1CN(C(=O)c2cnc3ccc(-c4ccc5oc(N)nc5c4)cn23)C[C@H](C)O1`, for which the IC50 against PI3K β is more than 10 µM; on PI3K δ, more than 10 µM; on PI3K γ, less than 10 µM; against PI3K α, less than 10 µM.
Consider `Nc1nc2cc(-c3ccc4ncc(N5CCOCC5)n4c3)ccc2o1` [Compound 53], for which the IC50 on PI3K β is more than 10 µM; against PI3K δ, more than 10 µM; at PI3K γ, more than 10 µM; on PI3K α, less than 10 µM.
With `CC(=O)N1CCN(C(=O)c2cnc3ccc(-c4ccc5oc(N)nc5c4)cn23)CC1`, the 50% inhibitory concentration (IC50) on PI3K β is more than 10 µM; against PI3K δ it was more than 10 µM; at PI3K γ it was less than 1 µM; on PI3K α, less than 0.1 µM.
With `CS(=O)(=O)N1CCN(c2cnc3ccc(-c4ccc5oc(N)nc5c4)cc3n2)CC1`, the IC50 is less than 1 µM on PI3K β, less than 1 µM against PI3K δ, less than 0.1 µM at PI3K γ and less than 0.1 µM on PI3K α.
In the case of `C[C@@H]1COCCN1c1cnc2ccc(-c3ccc4oc(N)nc4c3)nc2n1`, the half-inhibitory concentration (IC50) is less than 10 µM on PI3K β, less than 10 µM at PI3K δ, less than 0.1 µM on PI3K γ and less than 0.1 µM against PI3K α.
For `CCN1CCN(C(=O)c2cnc3ccc(-c4ccc5oc(N)nc5c4)cn23)CC1`, the IC50 against PI3K β was more than 10 µM; against PI3K δ it was more than 10 µM; on PI3K γ, less than 10 µM; on PI3K α it was less than 1 µM.
With `COC(=O)N1CCN(c2cnc3ccc(-c4ccc5oc(N)nc5c4)cc3n2)CC1`, the concentration for half-maximal inhibition (IC50) against PI3K β is less than 1 µM; on PI3K δ, less than 10 µM; on PI3K γ, less than 0.1 µM; at PI3K α it was less than 0.1 µM.
Consider `Nc1nc2cc(-c3ccc4ncc(C(=O)N5CCC(N6CCOCC6)CC5)n4c3)ccc2o1`, for which the IC50 was less than 10 µM at PI3K β, less than 10 µM against PI3K δ, less than 10 µM at PI3K γ and less than 1 µM at PI3K α.
For `Nc1nc2cc(-c3ccc4ncc(N5CC(N6CCN(C7CC7)CC6)C5)nc4n3)ccc2o1`, the IC50 against PI3K β was less than 10 µM; against PI3K δ it was less than 10 µM; on PI3K γ, less than 10 µM; on PI3K α it was less than 0.1 µM.
For `Nc1nc2cc(-c3cn4c(-c5ccncc5)cnc4cn3)ccc2o1`, the IC50 was less than 10 µM at PI3K β, less than 10 µM against PI3K δ, less than 1 µM at PI3K γ and less than 0.1 µM at PI3K α.
On to `CCN1CCN(c2cnc3ccc(-c4ccc5oc(N)nc5c4)cc3n2)CC1`, for which the IC50 against PI3K β is less than 0.1 µM; against PI3K δ, less than 10 µM; at PI3K γ it was less than 1 µM; at PI3K α, less than 0.1 µM.
For the compound `Nc1nc2cc(-c3ccc4ncc(C(=O)N5CCC(O)CC5)n4c3)ccc2o1`, the IC50 against PI3K β was more than 10 µM; against PI3K δ it was more than 10 µM; on PI3K γ, less than 10 µM; on PI3K α, less than 1 µM.

For orientation: IC50 means the point on the concentration scale where inhibition reaches its midpoint.

These data come from patent US9682141B2, “Combination of kinase inhibitors and uses thereof” (INTELLIKINE LLC, priority 2011, dated 2017).
